This note sets out measurements from patent US7452549B2, “Synergistic antioxidant combination of delta tocols and polyphenols” (Nestec S.A., priority 2001, dated 2008).

Molecules are shown by their SMILES.

For this assay, the system named is LDL fraction. The assay can be described thus: Oxidation of LDL in vitro (Cu2+-initiated, conjugated diene absorbance at 234 nm, lag phase). In kind it is biochemical, human. The settings on record: for synergistic antioxidant properties in combination with TRF or purified δ-tocol: non-polyphenolic antioxidants. Here is the method:
Oxidation of LDL In Vitro Plasma was obtained from the blood of healthy male and female volunteers and was frozen. […] Tubes were then centrifuged at 400 000 g at 15° C. for 2 hours. The top fraction (chylomicrons+VLDL) was removed. […] After centrifugation at 400 000 g at 15° C. for 2 hours, the LDL fraction floating on the top was collected. […] The fractions were supplemented with ethanolic solutions containing various extracts or with the same volume of pure ethanol (control). Oxidation was initiated by adding freshly-prepared CuSO4 solution (25 μmol/l final concentration) at 37° C. The kinetics of the oxidation of lipoprotein was determined by continuously monitoring the change in absorbance at 234 nm (at 37° C.) on a UV/VIS spectrophotometer, which correlates with the increase in conjugated diene absorbance. […] The time required for the formation of diene is defined as the lag phase. The longer the lag phase the better the protection of LDL against oxidation. […] Concentration-response curves for the LDL oxidation assay were plotted separately for each of the tocol preparations, and for the water-soluble antioxidant preparations (see FIGS. 1 to 5). In each experiment, the tocotrienol content of the tocol preparations (TRF) was standardised to 0.05 or 0.1 μg/ml.

On to `CC(=O)N[C@@H](CS)C(=O)O` [N-acetylcysteine], for which the “synergistic antioxidant properties in combination with TRF or purified δ-tocol” value is on record as “same lack of synergy”.

With `O=C1O[C@H]([C@@H](O)CO)C(O)=C1O` [ascorbic acid], the “synergistic antioxidant properties in combination with TRF or purified δ-tocol” value is on record as “not to have synergistic antioxidant properties”.

For the molecule `O=C(O)CCCCC1CCSS1` (stereo not drawn) [α-lipoic acid], the “synergistic antioxidant properties in combination with TRF or purified δ-tocol” value was “same lack of synergy”.

Regarding `Cc1cc(O)cc2c1O[C@](C)(CCC[C@H](C)CCC[C@H](C)CCCC(C)C)CC2` [δ-tocopherol], the “synergistic effect with polyphenols in in vitro LDL oxidation studies” value is given as “remarkable synergistic effects”.

As to `CC(C)=CCC/C(C)=C/CC/C(C)=C/CC[C@]1(C)CCc2cc(O)cc(C)c2O1` [δ-tocotrienol], the “relative performance of δ-tocotrienol vs δ-tocopherol in in vitro LDL oxidation studies” value was “performs marginally better” and the “synergistic effect with polyphenols in in vitro LDL oxidation studies” value was “remarkable synergistic effects”.
